# Measurements published in paper PMC4497792 (RSC advances, 2015).
# Columns and labels:
# GLUT1 = conditions: cited from earlier work; for Km: read-out: Km for GLUT1
# [1] = tested on: A549 non-small cell lung carcinoma cells; test: Intracellular concentration / cell uptake assessment by LC-MS; assay type: cell-based, human; conditions: 100 μM, 4 hours, compared to aglycone NHI-2 and to each other
# HeLa cells = conditions: antiproliferative IC50, HeLa and A549 cells
# [2] = target: human lactate dehydrogenase hLDH5 (LDH-A4) (Homo sapiens, UniProt P00338); test: Enzyme inhibition assay, NADH-competition kinetics on purified hLDH5
SMILES,Km (GLUT1) [mM],"cell uptake (intracellular concentration, in words) [1]",enhanced potency compared to NHI-2 (HeLa cells),also measured
OC[C@H]1OC(O)[C@H](O)[C@@H](O)[C@@H]1O (some centres unmarked) [glucose],1.5,–,–,–
"COC(=O)c1cc2c(C(F)(F)F)cc(-c3ccccc3)cc2n1O[C@@H]1O[C@H](CO)[C@H](O)[C@@H](O)[C@H]1O [Compound 3, Methyl 6-phenyl-4-(trifluoromethyl)-1-(((2S,3R,4R,5R,6R)-3,4,5-trihydroxy-6-(hydroxymethyl)tetrahydro-2H-pyran-2-yl)oxy)-1H-indole-2-carboxylate]",–,slightly lower levels of cell uptake,2–3 fold,–
"COC(=O)c1cc2c(C(F)(F)F)cc(-c3ccccc3)cc2n1O[C@H]1O[C@H](CO)[C@@H](O)[C@H](O)[C@@H]1O [Compound 2, Methyl 6-phenyl-4-(trifluoromethyl)-1-(((2R,3S,4S,5S,6R)-3,4,5-trihydroxy-6-(hydroxymethyl)tetrahydro-2H-pyran-2-yl)oxy)-1H-indole-2-carboxylate]",–,significantly enhanced cell uptake,3–6 fold,–
"OC[C@H]1OC(O)[C@@H](O)[C@@H](O)[C@@H]1O (stereo partly drawn) [Mannose, D-mannose]",20,–,–,reduction of affinity for GLUT1 compared to glucose (GLUT1): 13 fold
"COC(=O)c1cc2c(C(F)(F)F)cc(-c3ccccc3)cc2n1O[C@@H]1O[C@H](CO)[C@@H](O)[C@H](O)[C@H]1NC(C)=O [Compound 4, Methyl 1-(((2S,3R,4R,5S,6R)-3-acetamido-4,5-dihydroxy-6-(hydroxymethyl)tetrahydro-2H-pyran-2-yl)oxy)-6-phenyl-4-(trifluoromethyl)-1H-indole-2-carboxylate]",–,–,–,Ki [2]: 98.4 ± 15.6 µM
